The text below walks through data of US6897287B1, “Ro/SSA peptide reagents for diagnosis of autoantibodies” (Oklahoma Medical Research Foundation, priority 1990, dated 2005).

Assay [1] relates to sera that contain an anti-Sm precipitin in the absence of an anti-nRNP precipitin. Kind of assay: Solid phase antipeptide assay with sera having anti-Sm precipitin alone. Type of assay: binding, human. Particulars: anti-Sm precipitin without anti-nRNP precipitin. How it is done: Solid phase antipeptide assay. Wash steps and incubations were carried out in sealed plastic containers. Other assay steps were performed by lowering the pins into microliter plate wells. First, pins were blocked with 3% low-fat milk in PBS for 1 h at room temperature. Pins were then incubated in 1/100 dilutions of sera in 3% milk/PBS with 0.05% TWEEN® (surfactant) overnight at 4° C. in humidified sealed containers. The pin blocks were then washed four times with PBS with 0.05% TWEEN® (surfactant) for 10 min each with vigorous agitation. Next, each pin was incubated with anti-human gamma-chain specific IgG raised in a goat, affinity purified and conjugated to alkaline phosphatase (Jackson Immunoresearch Laboratories, West Grove, Pa.) at a {fraction (1/10,000)} dilution. Paranitrophenyl phosphate disodium was used as a substrate for alkaline phosphatase and plates were read at 405 nm with a MICROELISA Reader (Dynatech, Alexandria, Va.). Results for each plate were then standardized by comparison with positive control pins. The same control pins were used for all plates and were allowed to develop to a specific OD with a known concentration of a standard control sera.
All antigenic sites determined in this study require a positively charged amino acid. The size of these sites varies from two nonconsecutive basic amino acids to an entire octapeptide. […]

For assay [2], the system named is anti-Sm and anti-nRNP precipitin sera (IgG). Kind of assay: Solid phase antipeptide assay of Sm B/B' and related peptides with Sm, nRNP precipitin positive sera. The following applies: sera 1/100, Sm and nRNP precipitin positive SLE patients. The assay is classed as binding, human. How it is done:
Sera. Human sera form patients who satisfied the classification criteria of the American Rheumatism Association for SLE or normal age-matched, sex-matched controls were used in this study. Fifteen sera from lupus patients were tested. Ten of these sera tested contained antibodies that formed strong precipitin lines with both Sm and nRNP, three formed precipitin lines with only nRNP, one formed a precipitin line with Ro/SSA and La/SSB, and one formed a precipitin line with only Ro/SSA. All of these serologic findings were confirmed by appropriate molecular weight bands for the reported antigen being bound in immunoblot by the respective sera.
Solid-phase noncleavable peptide synthesis. The published sequence of Sm B/B′ was used to construct all the possible overlapping octapeptides. The amino acids used for peptide synthesis had Fmoc protected primary amino groups and t-butyl (or other appropriate group) protected side chains. Overlapping octapeptides were simultaneously synthesized at the rounded ends of radiation derivatized polyethylene pins that were arranged in the format of a 96 well microliter plate (Cambridge Research Biochemicals. Cambridge, UK and Coselco Mimotopes Pty Ltd. Victoria, Australia) The active esters of Fmoc, t-butyl amino acid solutions (30 mM) were solubilized in DMF that had […] added to a final concentration of 30 mM and dispensed into the wells of a microliter plate. Each amino acid was added as determined by the 240 amino acids of the Raji Sm B/B′ sequence. After 18 h of incubation, the pins were washed in DMF for 5 min. four times at 2 min each in methanol, and once again in DMF for 5 min. The Fmoc protecting groups were then removed from the newly added amino acid by a 20% piperidine/DMF bath for 30 min. These steps were repeated until all eight amino acids were added. After the final amino acid, the amino terminal groups of each peptide was acetylated by incubating the pins in a 5:2:1 (v/v/v) mixture of DMF:acetic anhydride: triethylamine for 90 min at room temperature. After this step the pins were again washed in DMF for 2 min, four times at 2 min each in methanol, and then air-dried for 10 min. Finally, side chain amino protecting groups were removed by […] (v/w/v) of trifluoracetic acid:phenol:ethanedithiol. Wash steps included 2 min in methylene chloride, two times at 5 min each in 5% […]/methylene chloride, and a final methylene chloride wash for 5 min. After drying for 10 min., pins were placed in distilled water for 2 min., transferred to a methanol bath for 18 h. and dried under vacuum for 18 h. This procedure was repeated to synthesize another set of the carboxyl-terminal 36 octapeptides to allow substantiation of the previous data. In addition other octapeptides, including the amino acid changes seen in the vanDam/Ohosone Proc. Natl. Acad. Sci. USA 86:4249 (1989) sequences, were also synthesized. Selected substitution and deletion sequences, along with similar sequences from other proteins, were also constructed. Control pins composed of amino acids in a random sequence were prepared that were not present in any of the Sm or nRNP antigen sequences. In addition, positive control pins were synthesized from a known reactive sequence of the La/SSB peptide.
Solid phase antipeptide assay. Wash steps and incubations were carried out in sealed plastic containers. Other assay steps were performed by lowering the pins into microliter plate wells. First, pins were blocked with 3% low-fat milk in PBS for 1 h at room temperature. Pins were then incubated in 1/100 dilutions of sera in 3% milk/PBS with 0.05% TWEEN® (surfactant) overnight at 4° C. in humidified sealed containers. The pin blocks were then washed four times with PBS with 0.05% TWEEN® (surfactant) for 10 min each with vigorous agitation. […]

Assay [3] concerns KSm 5 monoclonal autoantibody. Kind of assay: Binding of monoclonal antibody KSm 5 to Sm B/B' octapeptides. Also on record: species or system MRL lpr/lpr mouse. The following applies: hybridoma supernatant. An excerpt:
Autoantibodies binding the Sm B and B′ peptides (B/B′) are commonly associated with systemic lupus erythernatosus in man and in MRL lpr/lpr mice. KSm 3 and KSm 5 were derived from an unmanipulated MRL lpr/lpr mouse using hybridoma monoclonal antibody technology. Supernatants containing KSm 3 and KSm 5 monoclonal antibodies were collected from cloned murine hybridoma cell lines in RPMI 1640 with 10% fetal bovine serum, glutamine, penicillin and streptomycin. These monoclonal autoantibodies are both of the IgG2a subclass. The linear antigenic regions of these two anti-Sm B/B′ murine monoclonal autoantibodies have been mapped using overlapping octapeptides. Unique epitopes are identified by each monoclonal. Monoclonal antibody KSm 5 recognizes the peptide, PPPGMRPP (amino acids 4-11 of SEQ ID NO:14), which is repeated three times in the Sm B polypeptide. […] Both of these regions of Sm B/B′ are major areas of antigericity for human anti-Sm autoantibodies. […] When the arginine in the sixth position PPPGMRPP (amino acids 4-11 of SEQ ID NO:14) is substituted KSm 5 binding is found in an unexpected subset of octapeptides. […] In contrast, binding of KSm 3 to PPPGIRPP (SEQ ID NO:122) is abolished when the sixth position arginine is substituted by any other amino acid. These two murine autoantibodies bind distinct linear epitopes of Sm B/B′ which are also bound by human anti-Sm B/B′ autoantibodies. […]

Entries after “also recorded” stand apart in the source; their conditions may differ.

For PPPGMRPP (listed as Homo sapiens), in assay [1], the binding in words result is given as “does not appear to be bound”. In addition, the “antigenicity / reactivity in words” value in assay [2] is on record as “especially antigenic; also recorded: consistently the most immunoreactive; also recorded: similarly antigenic in each; also recorded: major linear antigenic epitope”. Further, the “binding by KSm 5 in words” value in assay [3] is on record as “recognizes”.
